According to patent publication US20240376163A1, “PEPTIDE FOR INHIBITING CALCINEURIN AND USE THEREOF” (Seoul National University R&DB Foundation, priority 2023, published 2024):

Tested on: Jurkat T cells
Experiment: mRNA sequencing of activated Jurkat T cells
Assay type: cell-based, human

PEITVTPPTP [CABIN1-L-1-2]
CRIM1 FPKM (P + I): 0.333 FPKM | CRTAM FPKM (P + I): 9.51 FPKM | CSF1 FPKM (P + I): 2.594 FPKM | CSF2 FPKM (P + I): 0.314 FPKM | CST7 FPKM (P + I): 3.175 FPKM | CXCL8 FPKM (P + I): 3.327 FPKM | CXCR3 FPKM (P + I): 1.803 FPKM | DSTYK FPKM (P + I): 3.595 FPKM | FBXO34 FPKM (P + I): 18.386 FPKM | FMNL2 FPKM (P + I): 3.019 FPKM | FOSL2 FPKM (P + I): 2.362 FPKM | FOXO1 FPKM (P + I): 3.736 FPKM | FXYD5 FPKM (P + I): 42.856 FPKM | FYN FPKM (P + I): 15.512 FPKM | GFOD1 FPKM (P + I): 6.312 FPKM | GRK5 FPKM (P + I): 8.975 FPKM | GTDC1 FPKM (P + I): 5.144 FPKM | IL2 FPKM (P + I): 12.964 FPKM | IL3 FPKM (P + I): 6.298 FPKM | IL21R FPKM (P + I): 5.255 FPKM | IL21R-AS1 FPKM (P + I): 3.991 FPKM | IQCJ-SCHIP1 FPKM (P + I): 1.234 FPKM | IRF4 FPKM (P + I): 2.092 FPKM | IRF8 FPKM (P + I): 1.914 FPKM | ISM1 FPKM (P + I): 3.737 FPKM | JAK2 FPKM (P + I): 8.45 FPKM | KCNK1 FPKM (P + I): 13.139 FPKM | KCNK5 FPKM (P + I): 4.904 FPKM | LAMP3 FPKM (P + I): 9.828 FPKM | LAX1 FPKM (P + I): 7.578 FPKM | LIF FPKM (P + I): 0.231 FPKM | LOC729603 FPKM (P + I): 3.329 FPKM | LRRC8B FPKM (P + I): 4.298 FPKM | LTBP4 FPKM (P + I): 9.568 FPKM | MAP2K3 FPKM (P + I): 43.237 FPKM | MIR6775 FPKM (P + I): 21.57 FPKM | MIR6821 FPKM (P + I): 25.116 FPKM | MYO1D FPKM (P + I): 5.995 FPKM | NDFIP1 FPKM (P + I): 24.432 FPKM | NFATC1 FPKM (P + I): 3.916 FPKM | NPDC1 FPKM (P + I): 5.64 FPKM | NR4A2 FPKM (P + I): 0.356 FPKM | NTRK1 FPKM (P + I): 1.657 FPKM | PAM FPKM (P + I): 1.934 FPKM | PDGFA FPKM (P + I): 8.169 FPKM | PELI1 FPKM (P + I): 8.465 FPKM | PHACTR2 FPKM (P + I): 2.791 FPKM | PHEX FPKM (P + I): 0.786 FPKM | PIM3 FPKM (P + I): 72.895 FPKM | PKIA FPKM (P + I): 18.138 FPKM | PLK3 FPKM (P + I): 7.036 FPKM | PLS3 FPKM (P + I): 0.37 FPKM | POU2AF1 FPKM (P + I): 2.971 FPKM | PPIF FPKM (P + I): 106.533 FPKM | PTPN6 FPKM (P + I): 20.806 FPKM | PTPN22 FPKM (P + I): 5.119 FPKM | RDH10 FPKM (P + I): 5.524 FPKM | REL FPKM (P + I): 5.699 FPKM | RGS16 FPKM (P + I): 5.595 FPKM | SCHIP1 FPKM (P + I): 1.333 FPKM | SERPINB2 FPKM (P + I): 14.103 FPKM | SHC4 FPKM (P + I): 0.686 FPKM | SLAMF1 FPKM (P + I): 0.275 FPKM | SLC35E4 FPKM (P + I): 1.517 FPKM | SORBS1 FPKM (P + I): 0.511 FPKM | SPRY1 FPKM (P + I): 4.901 FPKM | STAT5A FPKM (P + I): 3.055 FPKM | TAGAP FPKM (P + I): 8.731 FPKM | TBC1D4 FPKM (P + I): 13.191 FPKM | TBC1D20 FPKM (P + I): 18.427 FPKM | TDRD9 FPKM (P + I): 1.888 FPKM | TIAM2 FPKM (P + I): 0.301 FPKM | TM4SF1 FPKM (P + I): 0.907 FPKM | TNFRSF4 FPKM (P + I): 11.916 FPKM | TNFSF9 FPKM (P + I): 2.651 FPKM | TNFSF14 FPKM (P + I): 4.255 FPKM | TNS3 FPKM (P + I): 1.418 FPKM | VAMP1 FPKM (P + I): 14.752 FPKM | XCL1 FPKM (P + I): 1.144 FPKM | XCL2 FPKM (P + I): 2.074 FPKM | ZNF704 FPKM (P + I): 0.183 FPKM | ZNF827 FPKM (P + I): 1.372 FPKM | ABCB10 FPKM (P+I): 9.751 FPKM | ACTG1 FPKM (P+I): 799.981 FPKM | ADAM19 FPKM (P+I): 4.257 FPKM | ADD3 FPKM (P+I): 9.536 FPKM | ADORA2B FPKM (P+I): 6.969 FPKM | AGO2 FPKM (P+I): 14.51 FPKM | AIM1 FPKM (P+I): 27.486 FPKM | APOBEC3A_B FPKM (P+I): 14.665 FPKM | APOBEC3B FPKM (P+I): 59.895 FPKM | APOBEC3C FPKM (P+I): 14.323 FPKM | APOBEC3D FPKM (P+I): 8.981 FPKM | APOL2 FPKM (P+I): 102.003 FPKM | APOL6 FPKM (P+I): 46.762 FPKM | AQP3 FPKM (P+I): 52.98 FPKM | ARAP2 FPKM (P+I): 13.458 FPKM | ARC FPKM (P+I): 10.186 FPKM | ARHGAP23 FPKM (P+I): 1.985 FPKM | ARHGEF6 FPKM (P+I): 27.254 FPKM | ASAP1 FPKM (P+I): 9.052 FPKM | ATG14 FPKM (P+I): 11.252 FPKM | ATP2B4 FPKM (P+I): 10.46 FPKM | ATXN1 FPKM (P+I): 2.083 FPKM | BACH2 FPKM (P+I): 36.118 FPKM | BAI2 FPKM (P+I): 1.079 FPKM | BAIAP2-AS1 FPKM (P+I): 2.144 FPKM | BATF3 FPKM (P+I): 45.085 FPKM | BHLHE40 FPKM (P+I): 9.368 FPKM | BTG1 FPKM (P+I): 23.454 FPKM | C1QL1 FPKM (P+I): 0.756 FPKM | C1orf233 FPKM (P+I): 0.674 FPKM | C3 FPKM (P+I): 1.329 FPKM | C9orf9 FPKM (P+I): 6.009 FPKM | C10orf54 FPKM (P+I): 0.487 FPKM | C16orf46 FPKM (P+I): 3.705 FPKM | CASC15 FPKM (P+I): 2.572 FPKM | CBX4 FPKM (P+I): 11.578 FPKM | CBX6 FPKM (P+I): 65.604 FPKM | CCDC64 FPKM (P+I): 11.039 FPKM | CCDC71L FPKM (P+I): 16.319 FPKM | CCL1 FPKM (P+I): 0.415 FPKM | CCL3L1 FPKM (P+I): 0.079 FPKM | CCL4 FPKM (P+I): 4.062 FPKM | CCL4L1 FPKM (P+I): 0.328 FPKM | CCL4L2 FPKM (P+I): 0.328 FPKM | CCND2 FPKM (P+I): 0.99 FPKM | CD1A FPKM (P+I): 4.51 FPKM | CD1C FPKM (P+I): 2.59 FPKM | CD1D FPKM (P+I): 3.093 FPKM | CD27-AS1 FPKM (P+I): 4.613 FPKM | CD27 FPKM (P+I): 3.4 FPKM | CD55 FPKM (P+I): 12.082 FPKM | CD69 FPKM (P+I): 121.846 FPKM | CD83 FPKM (P+I): 41.173 FPKM | CDCA7 FPKM (P+I): 21.851 FPKM | CDT1 FPKM (P+I): 11.831 FPKM | CFD FPKM (P+I): 1.22 FPKM | CHI3L2 FPKM (P+I): 51.627 FPKM | CHRNA9 FPKM (P+I): 2.572 FPKM | CLEC2B FPKM (P+I): 54.119 FPKM | CNR2 FPKM (P+I): 0.552 FPKM | CORO2A FPKM (P+I): 1.623 FPKM | CRIM1 FPKM (P+I): 0.333 FPKM | CRTAM FPKM (P+I): 9.51 FPKM | CSRNP1 FPKM (P+I): 23.093 FPKM | CST7 FPKM (P+I): 3.175 FPKM | CTDSPL FPKM (P+I): 1.836 FPKM | CTTN FPKM (P+I): 15.629 FPKM | CXCL3 FPKM (P+I): 7.007 FPKM | CXCL9 FPKM (P+I): 7.221 FPKM | CXCL10 FPKM (P+I): 6.288 FPKM | CXCR3 FPKM (P+I): 1.803 FPKM | CYB5RL FPKM (P+I): 1.449 FPKM | DFNA5 FPKM (P+I): 9.395 FPKM | DHFR FPKM (P+I): 6.668 FPKM | DNAJB11 FPKM (P+I): 109.967 FPKM | DNAJC1 FPKM (P+I): 13.844 FPKM | DNPEP FPKM (P+I): 43.482 FPKM | DOK2 FPKM (P+I): 27.542 FPKM | DPY19L2P2 FPKM (P+I): 2.643 FPKM | DPYSL2 FPKM (P+I): 9.177 FPKM | DTX3L FPKM (P+I): 48.261 FPKM | DUSP2 FPKM (P+I): 97.06 FPKM | DUSP5 FPKM (P+I): 157.077 FPKM | E2F1 FPKM (P+I): 8.062 FPKM | E2F2 FPKM (P+I): 3.419 FPKM | EIF2AK3 FPKM (P+I): 9.816 FPKM | ENC1 FPKM (P+I): 9.268 FPKM | ENHO FPKM (P+I): 1.223 FPKM | ENPP1 FPKM (P+I): 51.27 FPKM | EPAS1 FPKM (P+I): 4.197 FPKM | EPHA3 FPKM (P+I): 2.536 FPKM | ERO1LB FPKM (P+I): 4.345 FPKM | ETV5 FPKM (P+I): 13.264 FPKM | EVI2A FPKM (P+I): 10.047 FPKM | FAM46C FPKM (P+I): 5.693 FPKM | FAM111B FPKM (P+I): 4.22 FPKM | FASLG FPKM (P+I): 1.715 FPKM | FBXO34 FPKM (P+I): 18.386 FPKM | FMNL2 FPKM (P+I): 3.019 FPKM | FOS FPKM (P+I): 4.53 FPKM | FOXO1 FPKM (P+I): 3.736 FPKM | FST FPKM (P+I): 6.872 FPKM | FURIN FPKM (P+I): 29.008 FPKM | FYB FPKM (P+I): 10.258 FPKM | GAMT FPKM (P+I): 11.98 FPKM | GBP1 FPKM (P+I): 87.487 FPKM | GBP2 FPKM (P+I): 38.881 FPKM | GBP3 FPKM (P+I): 68.757 FPKM | GBP4 FPKM (P+I): 9.209 FPKM | GBP5 FPKM (P+I): 262.945 FPKM | GDPD5 FPKM (P+I): 39.139 FPKM | GEM FPKM (P+I): 2.963 FPKM | GINS2 FPKM (P+I): 16.516 FPKM | GLIPR2 FPKM (P+I): 11.773 FPKM | GNAQ FPKM (P+I): 17.078 FPKM | GNG2 FPKM (P+I): 17.754 FPKM | GPR3 FPKM (P+I): 9.964 FPKM
